The subject of series [1] is mice. Put plainly: Isolation-induced pup vocalization test in mice. It counts as in vivo. Particulars: for ED50: sc, read-out: Change in vocalization frequency versus control, ED50 value. The protocol:
d) Investigation of the Anxiolytic Action in the Isolation-Induced Pup Vocalization Test in Mice
The isolation-induced pup vocalization test in mice was used to investigate anxiolytic actions (Fish, E. W., Sekinda, M., Ferrari, P. F., Dirks, A., Miczek, K. A., Psychopharmacology, vol. 149, p. 277-285, (2000)). Litters of 7 to 13 mice were used for the testing. At the age of 7 days the animals were separated from the mother and placed in an incubation cage with an internal temperature of approx. 34° C. For determination of the vocalizations in the ultrasonic range, the animals were placed individually on a temperature-controlled platform (23 cm×23 cm, divided by a grid into fields of 2 cm×2 cm, 19±1° C.) of a soundproofed test chamber for a duration of 30 sec. The ultrasonic vocalizations were recorded with a high-frequency capacitor microphone, filtered, amplified, digitalized and plotted and analysed using commercial software. Only animals with pre-values of at least 6 vocalizations within 30 sec and a body weight of 3.5 to 5.5 g were employed for the testing. After subcutaneous (s.c.) injection of substance or vehicle, the animals were returned to the incubation cage for a duration of 10 min and then placed individually again on the temperature-controlled plate of the test chamber for a duration of 4 min. In addition to the number of vocalizations, crossings of the grid of the plate and body turns of the mice were determined to investigate influences of the substance on locomotor activity and coordination. Changes in the vocalization frequencies, crossings of the grid and body turns were stated relative to the vehicle control. A reduction in the vocalization frequency is described for anxiolytics.

For series [2], the target named is T1, 5-HT re-uptake (Rattus norvegicus, UniProt P31652).
T1 construct: synaptosomes are freshly isolated from rat brain areas; from tissue; host or cells: rat brain synaptosomes (P2 fraction), medulla + pons region, male rats
T1 sequence (P31652 whole entry): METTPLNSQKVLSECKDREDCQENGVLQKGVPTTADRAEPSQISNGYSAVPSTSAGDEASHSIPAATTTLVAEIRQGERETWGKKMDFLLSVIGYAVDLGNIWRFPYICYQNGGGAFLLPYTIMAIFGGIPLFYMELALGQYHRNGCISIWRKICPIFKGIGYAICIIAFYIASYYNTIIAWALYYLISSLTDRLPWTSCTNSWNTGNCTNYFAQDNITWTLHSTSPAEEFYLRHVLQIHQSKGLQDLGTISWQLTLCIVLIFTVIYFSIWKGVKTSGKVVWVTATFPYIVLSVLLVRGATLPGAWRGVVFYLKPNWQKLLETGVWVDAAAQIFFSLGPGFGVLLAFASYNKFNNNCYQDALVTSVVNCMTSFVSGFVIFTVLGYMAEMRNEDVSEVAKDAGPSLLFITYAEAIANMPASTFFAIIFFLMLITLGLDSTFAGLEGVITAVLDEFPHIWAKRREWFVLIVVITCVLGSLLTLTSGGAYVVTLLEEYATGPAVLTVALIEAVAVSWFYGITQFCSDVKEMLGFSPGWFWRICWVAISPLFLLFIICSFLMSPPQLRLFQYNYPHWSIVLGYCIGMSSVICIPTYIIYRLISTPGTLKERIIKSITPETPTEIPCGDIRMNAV
Put plainly: Inhibition of 5-HT re-uptake in rat brain synaptosomes (P2 fraction, medulla + pons). It counts as biochemical. As to conditions: 10 μmol/l. The source says: (§1) a) Investigations of the Inhibition of the Re-uptake of 5-HT and NA
(§2) In order to be able to carry out these in vitro studies, synaptosomes are freshly isolated from rat brain areas. […] These vesicular particles are isolated from the hypothalamus for the NA re-uptake and from the medulla +pons region of male rat brains for the 5-HT re-uptake.
(§3) The IC50 values were obtained with the aid of the “Figure P” computer program (version 6.0, Biosoft, Cambridge, England). […] The “Ligand” computer program (version 4, Biosoft, England) was used to obtain KD values.

The target of series [3] is T2, NA re-uptake (Rattus norvegicus, UniProt Q63380).
T2 construct: synaptosomes are freshly isolated from rat brain areas; from tissue; host or cells: rat brain synaptosomes (P2 fraction), hypothalamus
T2 sequence (Q63380 1-617): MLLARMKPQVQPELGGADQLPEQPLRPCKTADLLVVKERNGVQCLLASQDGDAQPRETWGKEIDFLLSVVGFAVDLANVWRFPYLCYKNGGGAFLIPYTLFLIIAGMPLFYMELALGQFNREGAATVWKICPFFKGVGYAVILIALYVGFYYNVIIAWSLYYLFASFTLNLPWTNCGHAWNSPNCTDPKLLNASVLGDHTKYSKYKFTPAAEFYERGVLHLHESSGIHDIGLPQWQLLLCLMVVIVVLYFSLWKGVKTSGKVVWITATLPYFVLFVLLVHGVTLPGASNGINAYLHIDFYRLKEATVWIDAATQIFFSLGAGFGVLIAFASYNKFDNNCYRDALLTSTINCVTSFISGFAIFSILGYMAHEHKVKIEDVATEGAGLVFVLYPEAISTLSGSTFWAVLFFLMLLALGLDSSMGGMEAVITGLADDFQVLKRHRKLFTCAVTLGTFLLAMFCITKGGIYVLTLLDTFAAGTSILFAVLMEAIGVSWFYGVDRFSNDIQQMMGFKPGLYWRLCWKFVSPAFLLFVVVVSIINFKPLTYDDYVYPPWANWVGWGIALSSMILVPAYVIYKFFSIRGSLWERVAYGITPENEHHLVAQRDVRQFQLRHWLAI
In words: Inhibition of NA re-uptake in rat brain synaptosomes (P2 fraction, hypothalamus). It counts as biochemical. As to conditions: 10 μmol/l.
Source text: as §1, §2, §3

Series [4] has as its system mice. Put plainly: Formalin test in mice (analgesic action, chronic pain component). It counts as in vivo. Particulars: for ED50: Mus musculus, read-out: Inhibition of the nociceptive behaviour versus control, ED50 value. The procedure:
b) Investigations of the Analgesic Actions in the Formalin Test in Mice
The formalin test (Dubuisson, D. and Dennis, S. G., 1977, Pain, 4, 161-174) represents a model of acute and chronic pain. The chronic pain component was evaluated in the investigations described here.
A biphase nociceptive reaction which is recorded by observing three behaviour patterns which can be clearly differentiated from one another is induced in freely mobile test animals by a single formalin injection into the dorsal side of a hind paw.
Formalin is administered subcutaneously into the dorsal side of the right hind paw of each animal in a volume of 20 μl and a concentration of 1%.
The specific changes in behaviour which differ from the normal behaviour (score 0), such as raising (score 1) and shaking the paw (score 2) and biting and licking reactions (score 3), are observed and recorded continuously at component intervals of 3 min for up to 60 min after the administration of formalin. The changes in behaviour are weighted in different ways (score 0-3) and a pain rate (PR) is calculated using the following formula: PR=[(T0×0)+(T1×1)+(T2×2)+(T3×3)]/180.
The group size is 10 animals (n=10).
On the basis of the PR calculations, the action of the substance was determined as the change from a control in percent. The ED50 was determined by means of regression analysis.

Series [5] deals with mice. Put plainly: Forced swimming test (Porsolt test) in mice. It counts as in vivo. Particulars: for Change in immobility phase versus control: 2.15 mg/kg i.p., mice. The protocol: c) Investigation of the Antidepressant Action in the Forced Swimming Test (Porsolt Test) in Mice
The investigations to determine the antidepressant action of the compounds of the formula I according to the invention were carried out in the forced swimming test (Porsolt test) in mice (Porsolt, R. et al., Arch. Int. Pharmacodyn. vol. 229, p. 327-336, (1977)). Male mice (20-25 g body weight) were placed individually for a period of 6 minutes in a shallow bowl of water from which they were unable to escape and were therefore forced to swim. After some time the animals gave up their swimming attempts and passed into an immobility phase. The duration of the immobility phase in the interval of 2-6 minutes after introduction of the animals was determined. The substance and vehicle groups each comprise 10 animals. Changes in the duration of the immobility phase are stated relative to the vehicle control. Differences versus the vehicle control are tested for significance with the aid of the Student's T test. Antidepressants induce a shortening of the immobility phase.

The structures appear in SMILES notation. Marks after values point to notes of the source that are not given here.

As to `CN(C)CCCC1(c2ccc(F)cc2)OCc2cc(C#N)ccc21` (stereo not shown) [Citalopram, citalopram], in series [1] (dose range 0.56-10 mg/kg s.c.), the “Change in body turns, maximum change” value is listed as “+397% (s.)” and the “Change in grid crossings, maximum change” value is “+66% (n.s.)”. In series [1] (mouse pups), the ED50 came to 1.2 mg/kg.

In the case of `CN(C)CC1=C(c2cccnc2)CCCC1.Cl.Cl` [Example 1, Dimethyl-(2-pyridin-3-yl-cyclohex-1-enylmethyl)amine dihydrochloride], the inhibition at 10 µM came out at 83% in series [2] and 35% in series [3]. Besides, the results for the ED50 in series [4] (iv) and in series [1] (mouse pups) were 1.66 mg/kg and 1.7 mg/kg, respectively. For the same compound, the “Inhibition of the nociceptive behaviour (in words)” value in series [4] (formalin test in mice) is “dose-dependent inhibition of the nociceptive behaviour”. Besides, the “Change in immobility phase versus control” value in series [5] is listed as −54%***. In addition, in series [5] (forced swimming test in mice), the “Shortening of the immobility phase (in words)” value is “significant shortening of the immobility phase”. In series [1] (dose range 1.0-17 mg/kg s.c.), the “Change in body turns, maximum change” value was “+233% (n.s.)”. Moreover, in series [1] (dose range 1.0-17 mg/kg s.c.), the “Change in grid crossings, maximum change” value is on record as “+32% (n.s.)”. Moreover, the “Changes in the crossings of the grid and body turns (in words)” value in series [1] (locomotion and coordination) is “no significant changes in the crossings of the grid and body turns”. In addition, the “Reduction in the vocalization frequency (in words)” value in series [1] (pup vocalization test) is “significant reduction in the vocalization frequency”.

`CN(C)CC1=C(c2cccnc2)CCCCC1.Cl` [Example 23, Dimethyl-(2-pyridin-3-yl-cyclohept-1-enylmethyl)-amine hydrochloride]: the values for the inhibition at 10 µM in series [2] and in series [3] were 86% and 50%, respectively. Also, in series [4] (iv), the ED50 came out at 2.44 mg/kg.

On to `CN(C)CC1CCCCC=C1c1cccnc1.Cl` (stereo not shown) [Example 24, Dimethyl-(2-pyridin-3-yl-cyclohept-2-enylmethyl)-amine hydrochloride], for which the inhibition at 10 µM in series [2] stood at 67%; in series [3] it was 19%. For the same compound, the ED50 in series [4] (iv) is 5.4 mg/kg.

Consider `CN(C)CC1=C(c2cccnc2)CCC1.Cl` [Example 28, Dimethyl-(2-pyridin-3-yl-cyclopent-1-enylmethyl)-amine hydrochloride], for which the results for the inhibition at 10 µM in series [2] and in series [3] were 83% and 29%, respectively. Further, the “Inhibition of the nociceptive behaviour versus control; % inhibition” value (“Inhibition … % inhibition” for short) in series [4] (10 mg/kg i.v., mice) stood at 92.6%.

As to `CN(C)CC1CCCC1c1cccnc1.Cl` (stereo not shown) [Example 31, Dimethyl-(2-pyridin-3-yl-cyclopentylmethyl)-amine hydrochloride], the inhibition at 10 µM in series [2] turned out to be 70%; in series [3], 8%. For the same compound, the “Inhibition … % inhibition” value in series [4] (10 mg/kg i.v., mice) is reported as 89.7%.

As for `CN(C)CC1=C(c2cccnc2)CCCCCC1.Cl` [Example 32, Dimethyl-(2-pyridin-3-yl-cyclooct-1-enylmethyl)-amine hydrochloride], the inhibition at 10 µM in series [2] is 78%; in series [3], 55%. The ED50 in series [4] (iv, mice, formalin test) worked out at 2.77 mg/kg.

For `CCCN(CCC)CC1=C(c2cccnc2)CCCC1.Cl` [Example 65, Dipropyl-(2-pyridin-3-yl-cyclohex-1-enylmethyl)-amine hydrochloride], the inhibition at 10 µM was 54% in series [2] and -8% in series [3]. Further, in series [4] (4.64 mg/kg i.v., mice), the “Inhibition … % inhibition” value was −39.4%.

With `CNCC[C@H](Oc1cccc2ccccc12)c1cccs1` [duloxetine, reference compound], the ED50 in series [4] (ip) is 6.69 mg/kg. For the same compound, the “Change in immobility phase versus control” value in series [5] was −41%**.

`COc1ccc(C(CN(C)C)C2(O)CCCCC2)cc1` (stereo not shown) [venlafaxine, reference compound]: in series [3], the inhibition at 10 µM was found to be 92%. Also, the ED50 amounted to 2.6 mg/kg in series [4] (iv) and 8.1 mg/kg in series [1] (Mus musculus). Also, the “Change in immobility phase versus control” value in series [5] was −66%***. The “Change in body turns, maximum change” value in series [1] (dose range 0.3-56 mg/kg s.c.) was “+141% (n.s.)”. Also, the “Change in grid crossings, maximum change” value in series [1] (dose range 0.3-56 mg/kg s.c.) is recorded as “+92% (n.s.)”.

In general, inhibition refers to the relative decrease from the control value, in per cent.

These data come from patent US7384961B2, “Saturated and unsaturated heteroarylcycloalkylmethyl amines as anti-depressants” (priority 2002, dated 2008).
